How the values were obtained:
nAChR = type: binding, bovine
[1] = system: unmyelinated primary afferent sensory nerves; settings: rat, in vivo

| Molecule | displacement of 3H-epibatidine binding (nAChR) | further results |
| --- | --- | --- |
| C[N+]1(C)CCN(c2ccccc2)CC1.[I-] [DMPP, 1,1-dimethyl-4-phenylpiperazinium iodide] | displaced |  |
| Clc1ccc(C2CC3CCC2N3)cn1 (stereo not drawn) [^3H-epibatidine, epibatidine] |  | Hill coefficient of 3H-epibatidine binding (nAChR): 1.08 |
| C[N+](C)(C)CCOC(N)=O [carbachol] | displaced |  |
| Nc1cc[nH]c(=O)n1 [cytosine] | displaced |  |
| CN1CCCC1c1cccnc1 (stereo not drawn) [nicotine] | displaced |  |
| ω-conotoxin GVIA |  | inhibition of the vascular response to LFES of sensory nerves [1]: significant inhibition |

From patent publication US7348400B2 (priority 2001, dated 2008)
